According to patent US10556907B2 (AbbVie Inc., priority 2015, dated 2020):

Tests used:
Assay in all cases: Method 1: intracellular Ca2+ release (FLIPR, Calcium 5) in recombinant CHO-K1 cells
Type in all cases: cell-based
[1] = biological target: T1, human S1PR1 receptor (Homo sapiens, UniProt P21453); conditions: (1): determined with method 1; read-out: S1P1 EC50
T1 construct: host or cells: CHO-K1
How it was run: (§1)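 Read-out: FLIPR Tetra fluorescence of Calcium 5-loaded CHO-K1 cells (receptor + aequorin + Gq/i5) after agonist addition at RT. Values are EC50s from nonlinear fits normalized to the phospho-fingolimod reference curve. Buffer HBSS with Ca2+/Mg2+, Hepes, probenecid, 0.1% BSA, pH 7.4.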

[2] = biological target: T2, human S1PR4 receptor (Homo sapiens, UniProt O95977); conditions: (1): determined with method 1; read-out: S1P4 EC50
T2 construct: host or cells: CHO-K1
T2 sequence (O95977 1-384): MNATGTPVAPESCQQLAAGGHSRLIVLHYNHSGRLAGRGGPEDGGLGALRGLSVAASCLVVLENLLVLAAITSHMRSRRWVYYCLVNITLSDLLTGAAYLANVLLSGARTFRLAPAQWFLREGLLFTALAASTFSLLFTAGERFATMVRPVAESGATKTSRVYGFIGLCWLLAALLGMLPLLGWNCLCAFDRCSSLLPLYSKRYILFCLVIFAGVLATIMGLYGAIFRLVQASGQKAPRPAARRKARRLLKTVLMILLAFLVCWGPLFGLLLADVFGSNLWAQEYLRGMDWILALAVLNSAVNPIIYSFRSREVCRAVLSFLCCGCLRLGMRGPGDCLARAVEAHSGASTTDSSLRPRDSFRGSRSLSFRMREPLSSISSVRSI
How it was run: as §1

[3] = biological target: T3, human S1PR5 receptor (Homo sapiens, UniProt Q9H228); conditions: agonist potency, determined with method 1 (symbols A-D); read-out: S1P5 EC50 range
T3 construct: host or cells: CHO-K1
How it was run: as §1

[4] = biological target: T4, human S1PR3 receptor (Homo sapiens, UniProt Q99500); conditions: (1): determined with method 1; read-out: S1P3 EC50
T4 construct: host or cells: CHO-K1
How it was run: as §1

T4 sequence (Q99500 whole entry): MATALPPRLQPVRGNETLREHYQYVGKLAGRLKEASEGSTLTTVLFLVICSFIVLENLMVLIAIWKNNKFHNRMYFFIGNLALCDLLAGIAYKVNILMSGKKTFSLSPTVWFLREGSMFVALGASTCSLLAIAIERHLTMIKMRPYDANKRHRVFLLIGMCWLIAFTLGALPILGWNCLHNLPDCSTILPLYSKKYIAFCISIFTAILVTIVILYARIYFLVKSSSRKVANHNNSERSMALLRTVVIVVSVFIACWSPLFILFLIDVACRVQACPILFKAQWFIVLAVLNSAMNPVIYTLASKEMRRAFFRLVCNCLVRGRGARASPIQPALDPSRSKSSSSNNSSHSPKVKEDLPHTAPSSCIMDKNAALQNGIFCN
T1 sequence (P21453 whole entry): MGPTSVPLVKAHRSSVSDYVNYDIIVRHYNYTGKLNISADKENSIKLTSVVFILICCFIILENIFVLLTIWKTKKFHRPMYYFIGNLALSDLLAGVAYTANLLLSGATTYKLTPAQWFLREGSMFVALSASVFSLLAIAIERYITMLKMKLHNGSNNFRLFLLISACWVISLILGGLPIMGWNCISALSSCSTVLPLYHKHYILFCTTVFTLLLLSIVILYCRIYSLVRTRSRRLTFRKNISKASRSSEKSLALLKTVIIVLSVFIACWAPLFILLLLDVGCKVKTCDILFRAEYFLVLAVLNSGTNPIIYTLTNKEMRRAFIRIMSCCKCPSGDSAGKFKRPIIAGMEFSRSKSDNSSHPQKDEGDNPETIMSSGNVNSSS
T3 sequence (Q9H228 whole entry): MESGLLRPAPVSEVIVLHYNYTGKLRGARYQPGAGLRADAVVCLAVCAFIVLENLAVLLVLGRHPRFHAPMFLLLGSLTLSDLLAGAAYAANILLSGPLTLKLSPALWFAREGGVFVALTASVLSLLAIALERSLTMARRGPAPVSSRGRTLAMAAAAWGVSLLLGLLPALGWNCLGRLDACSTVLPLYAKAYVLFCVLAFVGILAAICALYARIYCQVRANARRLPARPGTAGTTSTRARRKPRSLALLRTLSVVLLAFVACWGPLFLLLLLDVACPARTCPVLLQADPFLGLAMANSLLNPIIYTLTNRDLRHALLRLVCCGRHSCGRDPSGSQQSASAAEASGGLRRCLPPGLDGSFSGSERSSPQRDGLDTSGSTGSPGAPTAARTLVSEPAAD

EC50 [1] | EC50 [2] | EC50 [3] | EC50 [4] | SMILES
> 1 µM | > 1 µM | 0.1 to 1 µM |  | C[C@H](CC(=O)O)CN1CCc2nc(-c3ccc(C(F)(F)Cc4ccc(Cl)cc4)cc3)ncc2C1 (single isomer, unassigned) [Compound 294, 4-(2-(4-(2-(4-chlorophenyl)-1,1-difluoroethyl)phenyl)-7,8-dihydropyrido[4,3-d]pyrimidin-6(5H)-yl)-3-methylbutanoic acid]
> 1 µM | > 1 µM | 0.1 to 1 µM |  | O=C(O)CC1CC(N2CCc3nc(-c4ccc(OCc5ccc(Cl)c(Cl)c5)cc4)ncc3C2)C1 (stereo not drawn) [Compound 4, 2-(3-(2-(4-((3,4-dichlorobenzyl)oxy)phenyl)-7,8-dihydropyrido[4,3-d]pyrimidin-6(5H)-yl)cyclobutyl)acetic acid]
> 1 µM | > 1 µM | 0.1 to 1 µM |  | O=C(O)CC1CC(N2CCc3nc(-c4ccc(OCc5cc(Cl)cc(Cl)c5)cc4)ncc3C2)C1 (stereo not drawn) [Compound 5, 2-(3-(2-(4-((3,5-dichlorobenzyl)oxy)phenyl)-7,8-dihydropyrido[4,3-d]pyrimidin-6(5H)-yl)cyclobutyl)acetic acid]
> 1 µM | > 1 µM | 0.1 to 1 µM |  | O=C(O)CN1CCc2nc(-c3ccc(OCc4ccccc4)cc3)ncc2C1 [Compound 25, 2-(2-(4-(benzyloxy)phenyl)-7,8-dihydropyrido[4,3-d]pyrimidin-6(5H)-yl)acetic acid]
> 1 µM |  | < 0.01 µM | > 1 µM | O=C(O)CCCN1CCc2nc(-c3ccc(OCc4ccccc4)cc3)ccc2C1 [Compound 115, 4-(2-(4-(benzyloxy)phenyl)-7,8-dihydro-1,6-naphthyridin-6(5H)-yl)butanoic acid]
> 1 µM |  | < 0.01 µM | > 1 µM | O=C(O)CCCN1CCc2nc(-c3ccc(OCc4cccc(F)c4)cc3)ccc2C1 [Compound 116, 4-(2-(4-((3-fluorobenzyl)oxy)phenyl)-7,8-dihydro-1,6-naphthyridin-6(5H)-yl)butanoic acid]
> 1 µM |  | 0.1 to 1 µM | > 1 µM | Cc1cc(-c2ccc3c(n2)CCN(C2CC(C(=O)O)C2)C3)ccc1OCc1ccccc1 (stereo not drawn) [Compound 117, 3-(2-(4-(benzyloxy)-3-methylphenyl)-7,8-dihydro-1,6-naphthyridin-6(5H)-yl)cyclobutanecarboxylic acid]
< 1 µM |  | < 0.01 µM | > 1 µM | O=C(O)CCN1CCc2nc(-c3ccc(OCc4cccc(OC(F)(F)F)c4)cc3)ccc2C1 [Compound 151, 3-(2-(4-((3-trifluoromethoxybenzyl)oxy)phenyl)-7,8-dihydro-1,6-naphthyridin-6(5H)-yl)propanoic acid]
> 1 µM |  | < 0.01 µM | > 1 µM | O=C(O)CCN1CCc2nc(-c3ccc(OCc4ccc(C(F)(F)F)cc4)cc3)ccc2C1 [Compound 152, 3-(2-(4-((4-trifluoromethylbenzyl)oxy)phenyl)-7,8-dihydro-1,6-naphthyridin-6(5H)-yl)propanoic acid]
> 1 µM |  | 0.1 to 1 µM | > 1 µM | O=C(O)CCN1CCc2nc(-c3ccc(OCc4ccc(OC(F)(F)F)cc4)cc3)ccc2C1 [Compound 153, 3-(2-(4-((4-trifluoromethoxybenzyl)oxy)phenyl)-7,8-dihydro-1,6-naphthyridin-6(5H)-yl)propanoic acid]
> 1 µM |  | 0.01 to 0.1 µM | > 1 µM | Cc1ccc(COc2ccc(-c3ccc4c(n3)CCN(CCC(=O)O)C4)cc2)cc1C(F)(F)F [Compound 154, 3-(2-(4-((3-trifluoromethyl-4-(methyl)benzyl)oxy)phenyl)-7,8-dihydro-1,6-naphthyridin-6(5H)-yl)propanoic acid]
> 1 µM |  | 0.01 to 0.1 µM | > 1 µM | Cc1ccc(C(F)(F)F)cc1COc1ccc(-c2ccc3c(n2)CCN(CCC(=O)O)C3)cc1 [Compound 158, 3-(2-(4-((2-methyl-5-(trifluoromethyl)benzyl)oxy)phenyl)-7,8-dihydro-1,6-naphthyridin-6(5H)-yl)propanoic acid]
< 1 µM |  | < 0.01 µM | > 1 µM | O=C(O)CCN1CCc2nc(-c3ccc(OCc4cccc(OC(F)F)c4)cc3)ccc2C1 [Compound 164, 3-(2-(4-((3-difluoromethoxybenzyl)oxy)phenyl)-7,8-dihydro-1,6-naphthyridin-6(5H)-yl)propanoic acid]
> 1 µM |  | 0.01 to 0.1 µM | > 1 µM | Cc1cc(-c2ccc3c(n2)CCN(CCC(=O)O)C3)ccc1OCc1ccc(F)cc1 [Compound 168, 3-(2-(4-((4-fluorobenzyl)oxy)-3-methylphenyl)-7,8-dihydro-1,6-naphthyridin-6(5H)-yl)propanoic acid]
> 1 µM |  | 0.01 to 0.1 µM | > 1 µM | Cc1cc(-c2cc3c(cn2)CN(CCC(=O)O)CC3)ccc1OCc1ccccc1 [Compound 171, 3-(6-(4-(benzyloxy)-3-methylphenyl)-3,4-dihydro-2,7-naphthyridin-2(1H)-yl)propanoic acid]
< 1 µM |  | < 0.01 µM | > 1 µM | O=C(O)CCN1CCc2nc(-c3ccc(OCc4ccc(Cl)cc4)cc3)c(F)cc2C1 [Compound 187, 3-(2-(4-((4-chlorobenzyl)oxy)phenyl)-3-fluoro-7,8-dihydro-1,6-naphthyridin-6(5H)-yl)propanoic acid]
< 1 µM |  | < 0.01 µM | > 1 µM | O=C(O)CCN1CCc2nc(-c3ccc(OCc4ccc(F)cc4)cc3)c(F)cc2C1 [Compound 190, 3-(2-(4-((4-fluorobenzyl)oxy)phenyl)-3-fluoro-7,8-dihydro-1,6-naphthyridin-6(5H)-yl)propanoic acid]
< 1 µM |  | < 0.01 µM | > 1 µM | O=C(O)CCN1CCc2nc(-c3ccc(OCc4ccc(C(F)(F)F)cc4)cc3)c(F)cc2C1 [Compound 191, 3-(2-(4-((4-trifluoromethylbenzyl)oxy)phenyl)-3-fluoro-7,8-dihydro-1,6-naphthyridin-6(5H)-yl)propanoic acid]
> 1 µM |  | < 0.01 µM | > 1 µM | O=C(O)CCN1CCc2nc(-c3ccc(OCc4cccc(C(F)(F)F)c4)cc3)c(F)cc2C1 [Compound 194, 3-(2-(4-((3-trifluoromethylbenzyl)oxy)phenyl)-3-fluoro-7,8-dihydro-1,6-naphthyridin-6(5H)-yl)propanoic acid]
> 1 µM |  | 0.01 to 0.1 µM | > 1 µM | CCc1cccc(Cl)c1COc1ccc(-c2nc3c(cc2F)CN(CCC(=O)O)CC3)cc1 [Compound 196, 3-(2-(4-((2-chloro-6-ethylbenzyl)oxy)phenyl)-3-fluoro-7,8-dihydro-1,6-naphthyridin-6(5H)-yl)propanoic acid]
< 1 µM |  | < 0.01 µM | > 1 µM | O=C(O)CCN1CCc2nc(-c3ccc(OCc4cccc(F)c4F)cc3)c(F)cc2C1 [Compound 197]
< 1 µM |  | < 0.01 µM | > 1 µM | O=C(O)CCN1CCc2nc(-c3ccc(OCc4ccc(F)c(F)c4)cc3)c(F)cc2C1 [Compound 198, 3-(2-(4-((3,4-difluorobenzyl)oxy)phenyl)-3-fluoro-7,8-dihydro-1,6-naphthyridin-6(5H)-yl)propanoic acid]
> 1 µM |  | 1 to 10 µM | > 1 µM | CC(CC(=O)O)N1Cc2ccc(-c3ccc(OCc4c(Cl)cccc4Cl)cc3)nc2C1 (stereo not drawn) [Compound 201, 3-(2-(4-((2,6-dichlorobenzyl)oxy)phenyl)-5H-pyrrolo[3,4-b]pyridin-6(7H)-yl)butanoic acid]
> 1 µM |  | 1 to 10 µM | > 1 µM | O=C(O)CCN1Cc2ccc(-c3cccc(OCc4cccc(F)c4)c3)nc2C1 [Compound 203, 3-(2-(3-((3-fluorobenzyl)oxy)phenyl)-5H-pyrrolo[3,4-b]pyridin-6(7H)-yl)propanoic acid]
> 1 µM |  | 1 to 10 µM | > 1 µM | O=C(O)CCN1Cc2ccc(-c3cccc(OCc4ccccc4)c3)nc2C1 [Compound 204, 3-(2-(3-(benzyloxy)phenyl)-5H-pyrrolo[3,4-b]pyridin-6(7H)-yl)propanoic acid]
> 1 µM |  | 1 to 10 µM | > 1 µM | O=C(O)CCN1CCc2ncc(-c3ccc(OCc4ccccc4)cc3)nc2C1 [Compound 221, 3-(3-(4-(benzyloxy)phenyl)-7,8-dihydropyrido[3,4-b]pyrazin-6(5H)-yl)propanoic acid]
> 1 µM |  | 1 to 10 µM | > 1 µM | O=C(O)CCN1CCc2ncc(-c3ccc(OCc4cccc(Cl)c4)cc3)nc2C1 [Compound 222, 3-(3-(4-((3-chlorobenzyl)oxy)phenyl)-7,8-dihydropyrido[3,4-b]pyrazin-6(5H)-yl)propanoic acid]
> 1 µM |  | 1 to 10 µM | > 1 µM | O=C(O)CCN1CCc2ncc(-c3ccc(OCc4ccc(Cl)cc4)cc3)nc2C1 [Compound 223, 3-(3-(4-((4-chlorobenzyl)oxy)phenyl)-7,8-dihydropyrido[3,4-b]pyrazin-6(5H)-yl)propanoic acid]
